Test system: MDA-MB-468 spheroids with HUVEC/MSC, viability
Experiment: Anticancer human tumor MDA-MB-468 cell line growth inhibition [PI3K];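 further: spheroids exposed to agents for seven days before readout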;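 on viability, T/C: 100% = DMSO vehicle control viability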
Details: for IC50: curve of first compound; for viability, T/C: stronger effect = lower value
Method in brief: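 Spheroid viability read-out. Co-cultures contained the tumor line plus HUVEC and human MSCs. Each agent was paired with a PI3K inhibitor (inavolisib, alpelisib, duvelisib, copanlisib) across half-log dilutions starting at clinical Cmax, or at 10 microM when Cmax was unknown.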

[1] = second compound 0.0316 µM, first compound 0.0316 µM
[2] = second compound 0.0316 µM, first compound 0.1 µM
[3] = second compound 0.0316 µM, first compound 0.316 µM
[4] = second compound 0.0316 µM, first compound 1 µM
[5] = second compound 0.0316 µM, first compound 3.16 µM
[6] = second compound 0.0316 µM, first compound 10 µM
[7] = second compound 0.1 µM, first compound 0.0316 µM
[8] = second compound 0.1 µM, first compound 0.1 µM
[9] = second compound 0.1 µM, first compound 0.316 µM
[10] = second compound 0.1 µM, first compound 1 µM
[11] = second compound 0.1 µM, first compound 3.16 µM
[12] = second compound 0.1 µM, first compound 10 µM
[13] = second compound 0.316 µM, first compound 0.0316 µM
[14] = second compound 0.316 µM, first compound 0.1 µM
[15] = second compound 0.316 µM, first compound 0.316 µM
[16] = second compound 0.316 µM, first compound 1 µM
[17] = second compound 0.316 µM, first compound 3.16 µM
[18] = second compound 0.316 µM, first compound 10 µM
[19] = second compound 1 µM, first compound 0.0316 µM
[20] = second compound 1 µM, first compound 0.1 µM
[21] = second compound 1 µM, first compound 0.316 µM
[22] = second compound 1 µM, first compound 1 µM
[23] = second compound 1 µM, first compound 3.16 µM
[24] = second compound 1 µM, first compound 10 µM
[25] = second compound 3.16 µM, first compound 0.0316 µM
[26] = second compound 3.16 µM, first compound 0.1 µM
[27] = second compound 3.16 µM, first compound 0.316 µM
[28] = second compound 3.16 µM, first compound 1 µM
[29] = second compound 3.16 µM, first compound 3.16 µM
[30] = second compound 3.16 µM, first compound 10 µM
[31] = second compound 10 µM, first compound 0.0316 µM
[32] = second compound 10 µM, first compound 0.1 µM
[33] = second compound 10 µM, first compound 0.316 µM
[34] = second compound 10 µM, first compound 1 µM
[35] = second compound 10 µM, first compound 3.16 µM
[36] = second compound 10 µM, first compound 10 µM

Q: `Cn1ncc(Cl)c1-c1cc(C(=O)NC(CN)Cc2cccc(F)c2)sc1Cl` (centres undefined) + Cc1nc(NC(=O)N2CCCC2C(N)=O)sc1-c1ccnc(C(C)(C)C(F)(F)F)c1 was tested. Which IC50 (second compound 0.0316 µM) did it give?
A: Its IC50 is 327 nM.

Q: And the IC50 (second compound 0.1 µM)?
A: Its IC50 is 272 nM.

Q: What about the IC50 (second compound 0.316 µM) of the same compound?
A: The IC50 was 289 nM.

Q: And the IC50 (second compound 1 µM)?
A: The IC50 was 221 nM.

Q: What about the IC50 (second compound 3.16 µM) of the same compound?
A: The IC50 was 89.5 nM.

Q: And the IC50 (second compound 10 µM)?
A: Its IC50 is under 31.6 nM.

Q: And the viability, T/C [1]?
A: Its viability, T/C is 84.6%.

Q: And the viability, T/C [2]?
A: Its viability, T/C is 78.8%.

Q: What about the viability, T/C [3] of the same compound?
A: Its viability, T/C is 37.8%.

Q: And the viability, T/C [4]?
A: The viability, T/C was 33.1%.

Q: What about the viability, T/C [5] of the same compound?
A: Its viability, T/C is 29.8%.

Q: What about the viability, T/C [6] of the same compound?
A: Its viability, T/C is 0.69%.

Q: And the viability, T/C [7]?
A: Its viability, T/C is 78.1%.

Q: What about the viability, T/C [8] of the same compound?
A: The viability, T/C was 62.4%.

Q: And the viability, T/C [9]?
A: The viability, T/C was 41.2%.

Q: What about the viability, T/C [10] of the same compound?
A: The viability, T/C was 36%.

Q: And the viability, T/C [11]?
A: The viability, T/C was 27.5%.

Q: What about the viability, T/C [12] of the same compound?
A: The viability, T/C was 1.98%.

Q: And the viability, T/C [13]?
A: The viability, T/C was 80.2%.

Q: What about the viability, T/C [14] of the same compound?
A: The viability, T/C was 76.9%.

Q: What about the viability, T/C [15] of the same compound?
A: Its viability, T/C is 40.1%.

Q: What about the viability, T/C [16] of the same compound?
A: The viability, T/C was 30.1%.

Q: And the viability, T/C [17]?
A: Its viability, T/C is 19.7%.

Q: And the viability, T/C [18]?
A: Its viability, T/C is 3.34%.

Q: And the viability, T/C [19]?
A: Its viability, T/C is 91.3%.

Q: And the viability, T/C [20]?
A: The viability, T/C was 68%.

Q: What about the viability, T/C [21] of the same compound?
A: Its viability, T/C is 39.3%.

Q: What about the viability, T/C [22] of the same compound?
A: Its viability, T/C is 26.1%.

Q: What about the viability, T/C [23] of the same compound?
A: The viability, T/C was 19.3%.

Q: What about the viability, T/C [24] of the same compound?
A: The viability, T/C was 4.09%.

Q: And the viability, T/C [25]?
A: The viability, T/C was 66.7%.

Q: And the viability, T/C [26]?
A: The viability, T/C was 43.6%.

Q: And the viability, T/C [27]?
A: The viability, T/C was 37.4%.

Q: What about the viability, T/C [28] of the same compound?
A: Its viability, T/C is 20.8%.

Q: And the viability, T/C [29]?
A: Its viability, T/C is 14.1%.

Q: And the viability, T/C [30]?
A: The viability, T/C was 2.32%.

Q: What about the viability, T/C [31] of the same compound?
A: Its viability, T/C is 38.3%.

Q: What about the viability, T/C [32] of the same compound?
A: The viability, T/C was 20.8%.

Q: And the viability, T/C [33]?
A: Its viability, T/C is 20.6%.

Q: And the viability, T/C [34]?
A: The viability, T/C was 14.1%.

Q: And the viability, T/C [35]?
A: Its viability, T/C is 7.72%.

Q: What about the viability, T/C [36] of the same compound?
A: Its viability, T/C is 0.4%.

Q: `Cn1nccc1Nc1nccc(-c2ccn(C(CO)c3ccc(Cl)c(F)c3)c(=O)c2)n1` (centres undefined) + Cc1nc(NC(=O)N2CCCC2C(N)=O)sc1-c1ccnc(C(C)(C)C(F)(F)F)c1 was tested. Which IC50 (second compound 0.0316 µM) did it give?
A: The IC50 was over 10000 nM.

Q: And the IC50 (second compound 0.1 µM)?
A: The IC50 was over 10000 nM.

Q: What about the IC50 (second compound 0.316 µM) of the same compound?
A: The IC50 was over 10000 nM.

Q: What about the IC50 (second compound 1 µM) of the same compound?
A: Its IC50 is over 10000 nM.

Q: What about the IC50 (second compound 3.16 µM) of the same compound?
A: Its IC50 is 1600 nM.

Q: What about the IC50 (second compound 10 µM) of the same compound?
A: Its IC50 is under 31.6 nM.

Q: What about the viability, T/C [1] of the same compound?
A: Its viability, T/C is 88.7%.

Q: And the viability, T/C [2]?
A: Its viability, T/C is 85.4%.

Q: And the viability, T/C [3]?
A: Its viability, T/C is 84%.

Q: What about the viability, T/C [4] of the same compound?
A: The viability, T/C was 116%.

Q: And the viability, T/C [5]?
A: The viability, T/C was 107%.

Q: And the viability, T/C [6]?
A: The viability, T/C was 63.3%.

Q: What about the viability, T/C [7] of the same compound?
A: The viability, T/C was 92.2%.

Q: What about the viability, T/C [8] of the same compound?
A: The viability, T/C was 94.9%.

Q: What about the viability, T/C [9] of the same compound?
A: Its viability, T/C is 81.7%.

Q: What about the viability, T/C [10] of the same compound?
A: The viability, T/C was 93.3%.

Q: What about the viability, T/C [11] of the same compound?
A: The viability, T/C was 113%.

Q: And the viability, T/C [12]?
A: The viability, T/C was 53.8%.

Q: And the viability, T/C [13]?
A: Its viability, T/C is 103%.

Q: And the viability, T/C [14]?
A: The viability, T/C was 112%.

Q: And the viability, T/C [15]?
A: Its viability, T/C is 95.9%.

Q: And the viability, T/C [16]?
A: Its viability, T/C is 109%.

Q: And the viability, T/C [17]?
A: Its viability, T/C is 61.1%.

Q: And the viability, T/C [18]?
A: The viability, T/C was 63.8%.

Q: And the viability, T/C [19]?
A: The viability, T/C was 81.3%.

Q: And the viability, T/C [20]?
A: The viability, T/C was 75.6%.

Q: And the viability, T/C [21]?
A: The viability, T/C was 80.4%.

Q: What about the viability, T/C [22] of the same compound?
A: The viability, T/C was 67.3%.

Q: What about the viability, T/C [23] of the same compound?
A: The viability, T/C was 62.9%.

Q: What about the viability, T/C [24] of the same compound?
A: The viability, T/C was 53.9%.

Q: What about the viability, T/C [25] of the same compound?
A: The viability, T/C was 82.3%.

Q: What about the viability, T/C [26] of the same compound?
A: The viability, T/C was 64.1%.

Q: And the viability, T/C [27]?
A: Its viability, T/C is 63.4%.

Q: What about the viability, T/C [28] of the same compound?
A: The viability, T/C was 59.7%.

Q: What about the viability, T/C [29] of the same compound?
A: Its viability, T/C is 42.3%.

Q: What about the viability, T/C [30] of the same compound?
A: Its viability, T/C is 32.3%.

Q: And the viability, T/C [31]?
A: Its viability, T/C is 39.6%.

Q: And the viability, T/C [32]?
A: The viability, T/C was 24.8%.

Q: And the viability, T/C [33]?
A: The viability, T/C was 29.6%.

Q: What about the viability, T/C [34] of the same compound?
A: The viability, T/C was 20.2%.

Q: What about the viability, T/C [35] of the same compound?
A: The viability, T/C was 17.6%.

Q: And the viability, T/C [36]?
A: The viability, T/C was 14.5%.
